{
  "source": "the supplement of paper PMC8882468",
  "data": [
    {"test_system": "HCI-012 (organoid from a breast cancer xenograft)", "assay": "CTG-3D luminescence at 96 h relative to day-0 seeding control (ratio to day 0); higher = more growth / less cytotoxicity; PDxO 3D drug screen, 96 h, CTG-3D normalised to day-0 seeding control.", "conditions": "0.00025 µM; days in culture: 162", "values": [
      {"smiles": "C[C@@H]1COCCN1c1cc(C2([S@](C)(=N)=O)CC2)nc(-c2cc[nH]c3nccc2-3)n1", "note": "[ceralasertib]", "CTG-3D luminescence at 96 h": 2.31},
      {"smiles": "CCN1CCN(Cc2ccc(Nc3ncc(F)c(-c4cc(F)c5nc(C)n(C(C)C)c5c4)n3)nc2)CC1", "note": "[abemaciclib]", "CTG-3D luminescence at 96 h": 2.54},
      {"smiles": "NC1(C(=O)N[C@@H](CCO)c2ccc(Cl)cc2)CCN(c2nc[nH]c3nccc2-3)CC1", "note": "[capivasertib]", "CTG-3D luminescence at 96 h": 2.27},
      {"smiles": "CC(C)n1nc(-c2ccc3oc(N)nc3c2)c2c(N)ncnc21", "note": "[sapanisertib]", "CTG-3D luminescence at 96 h": 2.28},
      {"smiles": "O=C(c1ccc(F)c(F)c1Nc1ccc(I)cc1F)N1CC(O)([C@@H]2CCCCN2)C1", "note": "[cobimetinib]", "CTG-3D luminescence at 96 h": 2.1},
      {"smiles": "C[C@H](NC(=O)CCC(F)(F)F)C(=O)N[C@@H]1C(=O)N(CCO)c2ncccc2-c2ccccc21", "note": "[crenigacestat]", "CTG-3D luminescence at 96 h": 2.3},
      {"smiles": "Cc1cc(Nc2ncc(Cl)c(Nc3ccccc3S(=O)(=O)C(C)C)n2)c(OC(C)C)cc1C1CCNCC1", "note": "[ceritinib]", "CTG-3D luminescence at 96 h": 2.04},
      {"smiles": "CS(=O)(=O)c1ccc(C(=O)Nc2ccc(Cl)c(-c3ccccn3)c2)c(Cl)c1", "note": "[vismodegib]", "CTG-3D luminescence at 96 h": 2.72},
      {"smiles": "NC(=O)c1cccc2cn(-c3ccc([C@@H]4CCCNC4)cc3)nc12", "note": "[niraparib]", "CTG-3D luminescence at 96 h": 2.45}
    ]},
    {"test_system": "HCI-012", "assay": "CTG-3D luminescence at 96 h relative to day-0 seeding control (ratio to day 0); higher = more growth / less cytotoxicity; PDxO 3D drug screen, 96 h, CTG-3D normalised to day-0 seeding control.", "conditions": "0.00025 µM; days in culture: 201", "values": [
      {"smiles": "C[C@@H]1COCCN1c1cc(C2([S@](C)(=N)=O)CC2)nc(-c2cc[nH]c3nccc2-3)n1", "note": "[ceralasertib]", "CTG-3D luminescence at 96 h": 2.22},
      {"smiles": "CCN1CCN(Cc2ccc(Nc3ncc(F)c(-c4cc(F)c5nc(C)n(C(C)C)c5c4)n3)nc2)CC1", "note": "[abemaciclib]", "CTG-3D luminescence at 96 h": 2.22},
      {"smiles": "NC1(C(=O)N[C@@H](CCO)c2ccc(Cl)cc2)CCN(c2nc[nH]c3nccc2-3)CC1", "note": "[capivasertib]", "CTG-3D luminescence at 96 h": 2.11},
      {"smiles": "CC(C)n1nc(-c2ccc3oc(N)nc3c2)c2c(N)ncnc21", "note": "[sapanisertib]", "CTG-3D luminescence at 96 h": 2.02},
      {"smiles": "O=C(c1ccc(F)c(F)c1Nc1ccc(I)cc1F)N1CC(O)([C@@H]2CCCCN2)C1", "note": "[cobimetinib]", "CTG-3D luminescence at 96 h": 1.53},
      {"smiles": "C[C@H](NC(=O)CCC(F)(F)F)C(=O)N[C@@H]1C(=O)N(CCO)c2ncccc2-c2ccccc21", "note": "[crenigacestat]", "CTG-3D luminescence at 96 h": 1.94},
      {"smiles": "Cc1cc(Nc2ncc(Cl)c(Nc3ccccc3S(=O)(=O)C(C)C)n2)c(OC(C)C)cc1C1CCNCC1", "note": "[ceritinib]", "CTG-3D luminescence at 96 h": 2.34},
      {"smiles": "CS(=O)(=O)c1ccc(C(=O)Nc2ccc(Cl)c(-c3ccccn3)c2)c(Cl)c1", "note": "[vismodegib]", "CTG-3D luminescence at 96 h": 2.26},
      {"smiles": "NC(=O)c1cccc2cn(-c3ccc([C@@H]4CCCNC4)cc3)nc12", "note": "[niraparib]", "CTG-3D luminescence at 96 h": 2.4}
    ]},
    {"test_system": "HCI-012", "assay": "CTG-3D luminescence at 96 h relative to day-0 seeding control (ratio to day 0); higher = more growth / less cytotoxicity; PDxO 3D drug screen, 96 h, CTG-3D normalised to day-0 seeding control.", "conditions": "0.005 µM; days in culture: 143", "values": [
      {"smiles": "C[C@@H]1COCCN1c1cc(C2([S@](C)(=N)=O)CC2)nc(-c2cc[nH]c3nccc2-3)n1", "note": "[ceralasertib]", "CTG-3D luminescence at 96 h": 2.05},
      {"smiles": "CCN1CCN(Cc2ccc(Nc3ncc(F)c(-c4cc(F)c5nc(C)n(C(C)C)c5c4)n3)nc2)CC1", "note": "[abemaciclib]", "CTG-3D luminescence at 96 h": 2.02},
      {"smiles": "NC1(C(=O)N[C@@H](CCO)c2ccc(Cl)cc2)CCN(c2nc[nH]c3nccc2-3)CC1", "note": "[capivasertib]", "CTG-3D luminescence at 96 h": 1.78},
      {"smiles": "CC(C)n1nc(-c2ccc3oc(N)nc3c2)c2c(N)ncnc21", "note": "[sapanisertib]", "CTG-3D luminescence at 96 h": 1.85},
      {"smiles": "O=C(c1ccc(F)c(F)c1Nc1ccc(I)cc1F)N1CC(O)([C@@H]2CCCCN2)C1", "note": "[cobimetinib]", "CTG-3D luminescence at 96 h": 1.88},
      {"smiles": "C[C@H](NC(=O)CCC(F)(F)F)C(=O)N[C@@H]1C(=O)N(CCO)c2ncccc2-c2ccccc21", "note": "[crenigacestat]", "CTG-3D luminescence at 96 h": 1.63},
      {"smiles": "Cc1cc(Nc2ncc(Cl)c(Nc3ccccc3S(=O)(=O)C(C)C)n2)c(OC(C)C)cc1C1CCNCC1", "note": "[ceritinib]", "CTG-3D luminescence at 96 h": 1.89},
      {"smiles": "CS(=O)(=O)c1ccc(C(=O)Nc2ccc(Cl)c(-c3ccccn3)c2)c(Cl)c1", "note": "[vismodegib]", "CTG-3D luminescence at 96 h": 2.4},
      {"smiles": "NC(=O)c1cccc2cn(-c3ccc([C@@H]4CCCNC4)cc3)nc12", "note": "[niraparib]", "CTG-3D luminescence at 96 h": 2.4}
    ]},
    {"test_system": "HCI-012", "assay": "CTG-3D luminescence at 96 h relative to day-0 seeding control (ratio to day 0); higher = more growth / less cytotoxicity; PDxO 3D drug screen, 96 h, CTG-3D normalised to day-0 seeding control.", "conditions": "0.005 µM; days in culture: 162", "values": [
      {"smiles": "C[C@@H]1COCCN1c1cc(C2([S@](C)(=N)=O)CC2)nc(-c2cc[nH]c3nccc2-3)n1", "note": "[ceralasertib]", "CTG-3D luminescence at 96 h": 2.18},
      {"smiles": "CCN1CCN(Cc2ccc(Nc3ncc(F)c(-c4cc(F)c5nc(C)n(C(C)C)c5c4)n3)nc2)CC1", "note": "[abemaciclib]", "CTG-3D luminescence at 96 h": 2.02},
      {"smiles": "NC1(C(=O)N[C@@H](CCO)c2ccc(Cl)cc2)CCN(c2nc[nH]c3nccc2-3)CC1", "note": "[capivasertib]", "CTG-3D luminescence at 96 h": 1.88},
      {"smiles": "CC(C)n1nc(-c2ccc3oc(N)nc3c2)c2c(N)ncnc21", "note": "[sapanisertib]", "CTG-3D luminescence at 96 h": 1.6},
      {"smiles": "O=C(c1ccc(F)c(F)c1Nc1ccc(I)cc1F)N1CC(O)([C@@H]2CCCCN2)C1", "note": "[cobimetinib]", "CTG-3D luminescence at 96 h": 1.91},
      {"smiles": "C[C@H](NC(=O)CCC(F)(F)F)C(=O)N[C@@H]1C(=O)N(CCO)c2ncccc2-c2ccccc21", "note": "[crenigacestat]", "CTG-3D luminescence at 96 h": 1.74},
      {"smiles": "Cc1cc(Nc2ncc(Cl)c(Nc3ccccc3S(=O)(=O)C(C)C)n2)c(OC(C)C)cc1C1CCNCC1", "note": "[ceritinib]", "CTG-3D luminescence at 96 h": 1.68},
      {"smiles": "CS(=O)(=O)c1ccc(C(=O)Nc2ccc(Cl)c(-c3ccccn3)c2)c(Cl)c1", "note": "[vismodegib]", "CTG-3D luminescence at 96 h": 2.08},
      {"smiles": "NC(=O)c1cccc2cn(-c3ccc([C@@H]4CCCNC4)cc3)nc12", "note": "[niraparib]", "CTG-3D luminescence at 96 h": 2.2}
    ]}
  ]
}
